Laboratory results from ChEMBL document CHEMBL1201862, “PubChem BioAssay data set” (2004).
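Step 1: Grow cells in 96-well plates. Step 2: Expose to compound for 48 hours at 5 concentrations. Step 3: Interpolate endpoints linearly; if unreached, use highest concentration. Abbreviation: GI50, concentration required for 50% inhibition of growth.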 Active and inactive are the calls of the source. Cut-off read from the data, not from the text of the source: active = GI50 up to about 1.1 µM and inactive = higher.

Tests used:
Assay in all cases: growth of human tumour cells (NCI), 48 h
OVCAR-4 = tested on: OVCAR-4
UO-31 = tested on: UO-31
DLD-1 = tested on: DLD-1
IGROV-1 = tested on: IGROV-1
RPMI-8226 = tested on: RPMI-8226
RXF 631 = tested on: RXF 631
SW-620 = tested on: SW-620
OVCAR-5 = tested on: OVCAR-5
KM12 = tested on: KM12
ACHN = tested on: ACHN
NCI-H226 = tested on: NCI-H226
UACC-257 = tested on: UACC-257
UACC-62 = tested on: UACC-62
HCT-116 = tested on: HCT-116
LOX IMVI = tested on: LOX IMVI
HOP-18 = tested on: HOP-18
SNB-78 = tested on: SNB-78
TK-10 = tested on: TK-10
NCI-H23 = tested on: NCI-H23
SNB-75 = tested on: SNB-75
KM-20L2 = tested on: KM-20L2
SF-539 = tested on: SF-539
SK-MEL-5 = tested on: SK-MEL-5
HL-60 = tested on: HL-60
LXFL 529 = tested on: LXFL 529
SK-MEL-28 = tested on: SK-MEL-28
K562 = tested on: K562
NCI-H522 = tested on: NCI-H522
RXF 393 = tested on: RXF 393
HOP-62 = tested on: HOP-62
A549 = tested on: A549
DMS-273 = tested on: DMS-273
SK-OV-3 = tested on: SK-OV-3
OVCAR-3 = tested on: OVCAR-3
EKVX = tested on: EKVX
SF-268 = tested on: SF-268
HCC 2998 = tested on: HCC 2998
M14 = tested on: M14
COLO 205 = tested on: COLO 205
HT-29 = tested on: HT-29
SK-MEL-2 = tested on: SK-MEL-2
SN12C = tested on: SN12C
HOP-92 = tested on: HOP-92
CAKI-1 = tested on: CAKI-1
MOLT-4 = tested on: MOLT-4
OVCAR-8 = tested on: OVCAR-8
SNB-19 = tested on: SNB-19
DMS-114 = tested on: DMS-114
Malme-3M = tested on: Malme-3M
M19-MEL = tested on: M19-MEL
U-251 = tested on: U-251
SF-295 = tested on: SF-295
786-0 = tested on: 786-0
CCRF-CEM = tested on: CCRF-CEM
NCI-H460 = tested on: NCI-H460
HCT-15 = tested on: HCT-15
A498 = tested on: A498

[O-][S+]1c2ccc(Cl)cc2CC(SSC2Cc3cc(Cl)ccc3[S+]([O-])c3ccccc32)c2ccccc21 (stereo unspecified)
GI50 (OVCAR-4): > 100 µM (inactive) | GI50 (UO-31): > 100 µM (inactive) | GI50 (DLD-1): > 100 µM (inactive) | GI50 (IGROV-1): > 100 µM (inactive) | GI50 (RPMI-8226): > 100 µM (inactive) | GI50 (RXF 631): > 100 µM (inactive) | GI50 (SW-620): > 100 µM (inactive) | GI50 (OVCAR-5): > 100 µM (inactive) | GI50 (KM12): > 100 µM (inactive) | GI50 (ACHN): > 100 µM (inactive) | GI50 (NCI-H226): > 100 µM (inactive) | GI50 (UACC-257): > 100 µM (inactive) | GI50 (UACC-62): > 100 µM (inactive) | GI50 (HCT-116): > 100 µM (inactive) | GI50 (LOX IMVI): > 100 µM (inactive) | GI50 (HOP-18): > 100 µM (inactive) | GI50 (SNB-78): > 100 µM (inactive) | GI50 (TK-10): > 100 µM (inactive) | GI50 (NCI-H23): > 100 µM (inactive) | GI50 (SNB-75): > 100 µM (inactive) | GI50 (KM-20L2): > 100 µM (inactive) | GI50 (SF-539): > 100 µM (inactive) | GI50 (SK-MEL-5): > 100 µM (inactive) | GI50 (HL-60): > 100 µM (inactive) | GI50 (LXFL 529): > 100 µM (inactive) | GI50 (SK-MEL-28): > 100 µM (inactive) | GI50 (K562): > 100 µM (inactive) | GI50 (NCI-H522): > 100 µM (inactive) | GI50 (RXF 393): > 100 µM (inactive) | GI50 (HOP-62): > 100 µM (inactive) | GI50 (A549): > 100 µM (inactive) | GI50 (DMS-273): > 100 µM (inactive) | GI50 (SK-OV-3): > 100 µM (inactive) | GI50 (OVCAR-3): > 100 µM (inactive) | GI50 (EKVX): > 100 µM (inactive) | GI50 (SF-268): > 100 µM (inactive) | GI50 (HCC 2998): > 100 µM (inactive) | GI50 (M14): > 100 µM (inactive) | GI50 (COLO 205): > 100 µM (inactive) | GI50 (HT-29): > 100 µM (inactive) | GI50 (SK-MEL-2): > 100 µM (inactive) | GI50 (SN12C): > 100 µM (inactive) | GI50 (HOP-92): > 100 µM (inactive) | GI50 (CAKI-1): > 100 µM (inactive) | GI50 (MOLT-4): > 100 µM (inactive) | GI50 (OVCAR-8): > 100 µM (inactive) | GI50 (SNB-19): > 100 µM (inactive) | GI50 (DMS-114): > 100 µM (inactive) | GI50 (Malme-3M): > 100 µM (inactive) | GI50 (M19-MEL): > 100 µM (inactive) | GI50 (U-251): > 100 µM (inactive) | GI50 (SF-295): > 100 µM (inactive) | GI50 (786-0): > 100 µM (inactive) | GI50 (CCRF-CEM): > 100 µM (inactive) | GI50 (NCI-H460): > 100 µM (inactive)

NC(CCCCNCc1ccccc1)C(=O)O (stereo unspecified)
GI50 (OVCAR-4): > 100 µM (inactive) | GI50 (HCT-15): > 100 µM | GI50 (UO-31): > 100 µM (inactive) | GI50 (DLD-1): > 100 µM (inactive) | GI50 (IGROV-1): > 100 µM (inactive) | GI50 (RPMI-8226): > 100 µM (inactive) | GI50 (RXF 631): > 100 µM (inactive) | GI50 (SW-620): > 100 µM (inactive) | GI50 (OVCAR-5): > 100 µM (inactive) | GI50 (KM12): > 100 µM (inactive) | GI50 (ACHN): > 100 µM (inactive) | GI50 (NCI-H226): > 100 µM (inactive) | GI50 (UACC-257): > 100 µM (inactive) | GI50 (UACC-62): > 100 µM (inactive) | GI50 (HCT-116): > 100 µM (inactive) | GI50 (LOX IMVI): > 100 µM (inactive) | GI50 (HOP-18): > 100 µM (inactive) | GI50 (SNB-78): > 100 µM (inactive) | GI50 (TK-10): > 100 µM (inactive) | GI50 (NCI-H23): > 100 µM (inactive) | GI50 (SNB-75): > 100 µM (inactive) | GI50 (KM-20L2): > 100 µM (inactive) | GI50 (SF-539): > 100 µM (inactive) | GI50 (SK-MEL-5): > 100 µM (inactive) | GI50 (HL-60): > 100 µM (inactive) | GI50 (LXFL 529): > 100 µM (inactive) | GI50 (SK-MEL-28): > 100 µM (inactive) | GI50 (A498): > 100 µM (inactive) | GI50 (K562): > 100 µM (inactive) | GI50 (NCI-H522): > 100 µM (inactive) | GI50 (HOP-62): > 100 µM (inactive) | GI50 (A549): > 100 µM (inactive) | GI50 (DMS-273): > 100 µM (inactive) | GI50 (SK-OV-3): > 100 µM (inactive) | GI50 (OVCAR-3): > 100 µM (inactive) | GI50 (EKVX): > 100 µM (inactive) | GI50 (SF-268): > 100 µM (inactive) | GI50 (HCC 2998): > 100 µM (inactive) | GI50 (M14): > 100 µM (inactive) | GI50 (COLO 205): > 100 µM (inactive) | GI50 (HT-29): > 100 µM (inactive) | GI50 (SK-MEL-2): > 100 µM (inactive) | GI50 (SN12C): > 100 µM (inactive) | GI50 (HOP-92): > 100 µM (inactive) | GI50 (CAKI-1): > 100 µM (inactive) | GI50 (MOLT-4): > 100 µM (inactive) | GI50 (OVCAR-8): > 100 µM (inactive) | GI50 (SNB-19): > 100 µM (inactive) | GI50 (DMS-114): > 100 µM (inactive) | GI50 (Malme-3M): > 100 µM (inactive) | GI50 (M19-MEL): > 100 µM (inactive) | GI50 (U-251): > 100 µM (inactive) | GI50 (SF-295): > 100 µM (inactive) | GI50 (786-0): > 100 µM (inactive) | GI50 (CCRF-CEM): > 100 µM (inactive) | GI50 (NCI-H460): > 100 µM (inactive)
